Measurements: patent publication US11117915B2, “Antibacterial aminoglycoside analogs” (Cipla USA, Inc., priority 2007, dated 2021)
In brackets after ≈: the same amount, converted by molar mass. Read-outs that look alike come from different tables or passages of the source.

Key:
[1] = tested on: P. aeruginosa ATCC 27853; experiment: MIC assay, CLSI broth microdilution, P. aeruginosa ATCC 27853 (APAE001); format: cell-based; settings: for MIC: Pseudomonas aeruginosa, read-out: MIC APAE001
Experimental: (§1) Minimum inhibitory concentrations (MIC) were determined by reference Clinical and Laboratory Standards Institute (CLSI) broth microdilution methods per M7-A7 [2006]. Quality control ranges utilizing E. coli ATCC 25922, P. aeruginosa ATCC 27853 and S. aureus ATCC 29213, and interpretive criteria for comparator agents were as published in CLSI M100-S17 [2007]. Briefly, serial two-fold dilutions of the test compounds were prepared at 2× concentration in Mueller Hinton Broth. The compound dilutions were mixed in 96-well assay plates in a 1:1 ratio with bacterial inoculum. The inoculum was prepared by suspension of a colony from an agar plate that was prepared the previous day. Bacteria were suspended in sterile saline and added to each assay plate to obtain a final concentration of 5×10^5 CFU/mL. The plates were incubated at 35° C. for 20 hours in ambient air.

[2] = tested on: E. coli ATCC 25922; experiment: MIC assay, CLSI broth microdilution, E. coli ATCC 25922 (AECO001); format: cell-based; settings: for MIC: Escherichia coli, read-out: MIC AECO001
Experimental: as §1
These MIC assays were conducted following the same protocol as set forth in Example 110. As shown, substituted sisomicin derivatives with groups other than methyl at the 6′-position have improved activity against strains expressing the AAC6′-modifying enzymes.

[3] = APAE001 is ATCC27853, 35° C., 20 hours
[4] = AECO001 is ATCC25922, 35° C., 20 hours

CN[C@@H]1[C@@H](O)[C@@H](O[C@@H]2[C@@H](O)[C@H](O[C@H]3OC(CNCC4(O)CC(N)C4)=CC[C@H]3N)[C@@H](N)C[C@H]2NC(=O)C2(O)CNC2)OC[C@]1(C)O (stereo partly drawn) [Example 47]
MIC ([1]; ATCC27853, 20 h): 1 to 16 µg/mL (≈ 1.55 to 24.8 µM) | MIC ([2]; ATCC25922, 20 h): 1 to 16 µg/mL (≈ 1.55 to 24.8 µM)

CN[C@@H]1[C@@H](O)[C@@H](O[C@@H]2[C@@H](O)[C@H](O[C@H]3OC(CNCCCN)=CC[C@H]3N)[C@@H](N)C[C@H]2NC(=O)[C@@H](O)CCN)OC[C@]1(C)O [Example 48, 6′-(3-Amino-propyl)-1-(4-amino-2(S)-hydroxy-butyryl)-sisomicin]
MIC [1, 3]: 1 to 16 µg/mL (≈ 1.65 to 26.4 µM) | MIC [2, 4]: < 1 µg/mL | MIC AECO001 ([2]; Table 3, E. coli ATCC25922): 1 µg/mL (≈ 1.65 µM)

CN[C@@H]1[C@@H](O)[C@@H](O[C@@H]2[C@@H](O)[C@H](O[C@H]3OC(CNCC4CCCN4)=CC[C@H]3N)[C@@H](N)C[C@H]2NC(=O)[C@@H](O)CCN)OC[C@]1(C)O (stereo partly drawn) [Example 49, 6′-(Methyl-pyrrolidin-2-yl)-1-(4-amino-2(S)-hydroxy-butyryl)-sisomicin]
MIC ([1]; ATCC27853, 20 h): 1 to 16 µg/mL (≈ 1.58 to 25.3 µM) | MIC ([2]; ATCC25922, 20 h): < 1 µg/mL

CN[C@@H]1[C@@H](O)[C@@H](O[C@@H]2[C@@H](O)[C@H](O[C@H]3OC(CNC[C@H](O)C(=O)O)=CC[C@H]3N)[C@@H](N)C[C@H]2NC(=O)[C@@H](O)CCN)OC[C@]1(C)O [Example 50, 6′-(2(S)-Hydroxy-3-propanoic)-1-(4-amino-2(S)-hydroxy-butyryl)-sisomicin]
MIC ([1]; ATCC27853, 20 h): > 16 µg/mL | MIC ([2]; ATCC25922, 20 h): > 16 µg/mL

CN[C@@H]1[C@@H](O)[C@@H](O[C@@H]2[C@@H](O)[C@H](O[C@H]3OC(CNCC(C)(C)CN)=CC[C@H]3N)[C@@H](N)C[C@H]2NC(=O)[C@@H](O)CN)OC[C@]1(C)O [Example 51, 6′-(2,2-Dimethyl-3-amino-propyl)-1-(3-amino-2(S)-hydroxy-propionyl)-sisomicin]
MIC APAE001 [1, 3]: C (MIC's of greater than 16.0 μg/mL = C) | MIC AECO001 [2, 4]: A (MIC's of 1.0 μg/mL or less = A)

CN[C@@H]1[C@@H](O)[C@@H](O[C@@H]2[C@@H](O)[C@H](O[C@H]3OC(CNCCC(N)C4CC4)=CC[C@H]3N)[C@@H](N)C[C@H]2NC(=O)[C@@H](O)CN)OC[C@]1(C)O (stereo partly drawn) [Example 52, 6′-(3-Amino-3-cyclopropyl-propyl)-1-(3-amino-2(S)-hydroxy-propionyl)-sisomicin]
MIC APAE001 [1, 3]: B (MIC's of greater than 1.0 μg/mL to 16.0 μg/mL = B) | MIC AECO001 [2, 4]: A (MIC's of 1.0 μg/mL or less = A)

CN[C@@H]1[C@@H](O)[C@@H](O[C@@H]2[C@@H](O)[C@H](O[C@H]3OC(CNC[C@H]4C[C@H](O)CN4)=CC[C@H]3N)[C@@H](N)C[C@H]2NC(=O)[C@@H](O)CN)CC[C@]1(C)O [Example 53, 6′-(Methyl-4(S)-hydroxy-pyrrolidin-2(R)-yl)-1-(3-amino-2(S)-hydroxy-propionyl)-sisomicin]
MIC ([1]; ATCC27853, 20 h): > 16 µg/mL | MIC ([2]; ATCC25922, 20 h): 1 to 16 µg/mL (≈ 1.58 to 25.3 µM)

CN[C@@H]1[C@@H](O)[C@@H](O[C@@H]2[C@@H](O)[C@H](O[C@H]3OC(CNCCCO)=CC[C@H]3N)[C@@H](N)C[C@H]2NC(=O)[C@@H](O)CN)OC[C@]1(C)O [Example 54, 6′-(3-Propanol)-1-(3-amino-2(S)-hydroxy-propionyl)-sisomicin]
MIC ([1]; ATCC27853, 20 h): 1 to 16 µg/mL (≈ 1.69 to 27 µM) | MIC ([2]; ATCC25922, 20 h): < 1 µg/mL

CN[C@@H]1[C@@H](O)[C@@H](O[C@@H]2[C@@H](O)[C@H](O[C@H]3OC(CNCC(C)(C)N)=CC[C@H]3N)[C@@H](N)C[C@H]2NC(=O)[C@@H](O)CN)OC[C@]1(C)O [Example 55, 6′-(2-Methyl-2-amino-propyl)-1-(3-amino-2(S)-hydroxy-propionyl)-sisomicin]
MIC ([1]; ATCC27853, 20 h): > 16 µg/mL | MIC ([2]; ATCC25922, 20 h): 1 to 16 µg/mL (≈ 1.65 to 26.4 µM)

CN[C@@H]1[C@@H](O)[C@@H](O[C@@H]2[C@@H](O)[C@H](O[C@H]3OC(CNCC4(N)CCC4)=CC[C@H]3N)[C@@H](N)C[C@H]2NC(=O)[C@@H](O)CN)OC[C@]1(C)O [Example 56, 6′-(Methyl-1-amino-cyclobutyl)-1-(3-amino-2(S)-hydroxy-propionyl)-sisomicin]
MIC ([1]; ATCC27853, 20 h): > 16 µg/mL | MIC ([2]; ATCC25922, 20 h): < 1 µg/mL

CN[C@@H]1[C@@H](O)[C@@H](O[C@@H]2[C@@H](O)[C@H](O[C@H]3OC(CNC[C@H]4C[C@H](N)C4)=CC[C@H]3N)[C@@H](N)C[C@H]2NC(=O)[C@@H](O)CN)OC[C@]1(C)O [Example 59, 6′-(Methyl-trans-3-amino-cyclobutyl)-1-(3-amino-2(S)-hydroxy-propionyl)-sisomicin]
MIC ([1]; ATCC27853, 20 h): 1 to 16 µg/mL (≈ 1.62 to 25.9 µM) | MIC ([2]; ATCC25922, 20 h): < 1 µg/mL

CN[C@@H]1[C@@H](O)[C@@H](O[C@@H]2[C@@H](O)[C@H](O[C@H]3OC(CNC[C@H]4C[C@H](N)C4)=CC[C@H]3N)[C@@H](N)C[C@H]2NC(=O)C2(O)CC(N)C2)OC[C@]1(C)O (stereo partly drawn) [Example 60]
MIC ([1]; ATCC27853, 20 h): 1 to 16 µg/mL (≈ 1.55 to 24.9 µM) | MIC ([2]; ATCC25922, 20 h): < 1 µg/mL

CNCC1=CC[C@@H](N)[C@@H](O[C@H]2[C@H](O)[C@@H](O[C@H]3OC[C@](C)(O)[C@H](NC)[C@H]3O)[C@H](NC(=O)C3(O)CNC3)C[C@@H]2N)O1 [Example 61]
MIC [1, 3]: 1 to 16 µg/mL (≈ 1.78 to 28.5 µM) | MIC [2, 4]: < 1 µg/mL | MIC AECO001 ([2]; Table 3, E. coli ATCC25922): 1 µg/mL (≈ 1.78 µM)

CN[C@@H]1[C@@H](O)[C@@H](O[C@@H]2[C@@H](O)[C@H](O[C@H]3OC(CNCCO)=CC[C@H]3N)[C@@H](N)C[C@H]2NC(=O)C2(O)CC(N)C2)OC[C@]1(C)O (stereo partly drawn) [Example 62]
MIC ([1]; ATCC27853, 20 h): 1 to 16 µg/mL (≈ 1.65 to 26.5 µM) | MIC ([2]; ATCC25922, 20 h): < 1 µg/mL

CN[C@@H]1[C@@H](O)[C@@H](O[C@@H]2[C@@H](O)[C@H](O[C@H]3OC(CNC[C@H]4C[C@H](N)C4)=CC[C@H]3N)[C@@H](N)C[C@H]2NC(=O)C2(O)CNC2)OC[C@]1(C)O [Example 63]
MIC ([1]; ATCC27853, 20 h): 1 to 16 µg/mL (≈ 1.59 to 25.4 µM) | MIC ([2]; ATCC25922, 20 h): < 1 µg/mL

CN[C@@H]1[C@@H](O)[C@@H](O[C@@H]2[C@@H](O)[C@H](O[C@H]3OC(CNC[C@@H]4C[C@H](N)CN4)=CC[C@H]3N)[C@@H](N)C[C@H]2NC(=O)[C@@H](O)CN)OC[C@]1(C)O [Example 65, 6′-(Methyl-4(S)-amino-pyrrolidin-2(S)-yl)-1-(3-amino-2(S)-hydroxy-propionyl)-sisomicin]
MIC ([1]; ATCC27853, 20 h): 1 to 16 µg/mL (≈ 1.58 to 25.3 µM) | MIC ([2]; ATCC25922, 20 h): 1 to 16 µg/mL (≈ 1.58 to 25.3 µM)

CN[C@@H]1[C@@H](O)[C@@H](O[C@@H]2[C@@H](O)[C@H](O[C@H]3OC(CNCC4(CN)CC4)=CC[C@H]3N)[C@@H](N)C[C@H]2NC(=O)[C@@H](O)CN)OC[C@]1(C)O [Example 66, 6′-(Methyl-1-aminomethyl-cyclopropyl)-1-(3-amino-2(S)-hydroxy-propionyl)-sisomicin]
MIC ([1]; ATCC27853, 20 h): 1 to 16 µg/mL (≈ 1.62 to 25.9 µM) | MIC ([2]; ATCC25922, 20 h): < 1 µg/mL

CN[C@@H]1[C@@H](O)[C@@H](O[C@@H]2[C@@H](O)[C@H](O[C@H]3OC(CNCC4(N)CC4)=CC[C@H]3N)[C@@H](N)C[C@H]2NC(=O)[C@@H](O)CN)OC[C@]1(C)O [Example 67, 6′-(Methyl-1-Amino-cyclopropyl)-1-(3-amino-2(S)-hydroxy-propionyl)-sisomicin]
MIC ([1]; ATCC27853, 20 h): 1 to 16 µg/mL (≈ 1.66 to 26.5 µM) | MIC ([2]; ATCC25922, 20 h): 1 to 16 µg/mL (≈ 1.66 to 26.5 µM)

CN[C@@H]1[C@@H](O)[C@@H](O[C@@H]2[C@@H](O)[C@H](O[C@H]3OC(CNCC(O)CCN)=CC[C@H]3N)[C@@H](N)C[C@H]2NC(=O)[C@@H](O)CN)OC[C@]1(C)O (stereo partly drawn) [Example 68, 6′-(2-Hydroxy-4-amino-butyl)-1-(3-amino-2(S)-hydroxy-propionyl)-sisomicin]
MIC ([1]; ATCC27853, 20 h): 1 to 16 µg/mL (≈ 1.61 to 25.7 µM) | MIC ([2]; ATCC25922, 20 h): 1 to 16 µg/mL (≈ 1.61 to 25.7 µM)

CN[C@@H]1[C@@H](O)[C@@H](O[C@@H]2[C@@H](O)[C@H](O[C@H]3OC(CNC[C@H]4C[C@@H](N)[C@@H](O)C4)=CC[C@H]3N)[C@@H](N)C[C@H]2NC(=O)[C@@H](O)CN)OC[C@]1(C)O [Example 69, 6′-(Methyl-1(R)-amino-2(S)-hydroxy-cyclopent-4(S)-yl)-1-(3-amino-2(S)-hydroxy-propionyl)-sisomicin]
MIC ([1]; ATCC27853, 20 h): 1 to 16 µg/mL (≈ 1.54 to 24.7 µM) | MIC ([2]; ATCC25922, 20 h): < 1 µg/mL
